Measurements published in US5830434A, “Methods of treating non-insulin dependent diabetes mellitus with pancreatic polypeptide” (Medical University of South Carolina Foundation for …, priority 1997, dated 1998).

What was measured:
glucagon receptor [1] = target: T1, glucagon receptor (Rattus norvegicus, UniProt P30082); assay: Glucagon saturation binding in liver plasma membranes; design: species or system Zucker rat
T1 construct: from tissue; host or cells: liver plasma membranes of lean and fatty (fa/fa) Zucker rats
T1 sequence (P30082 27-485): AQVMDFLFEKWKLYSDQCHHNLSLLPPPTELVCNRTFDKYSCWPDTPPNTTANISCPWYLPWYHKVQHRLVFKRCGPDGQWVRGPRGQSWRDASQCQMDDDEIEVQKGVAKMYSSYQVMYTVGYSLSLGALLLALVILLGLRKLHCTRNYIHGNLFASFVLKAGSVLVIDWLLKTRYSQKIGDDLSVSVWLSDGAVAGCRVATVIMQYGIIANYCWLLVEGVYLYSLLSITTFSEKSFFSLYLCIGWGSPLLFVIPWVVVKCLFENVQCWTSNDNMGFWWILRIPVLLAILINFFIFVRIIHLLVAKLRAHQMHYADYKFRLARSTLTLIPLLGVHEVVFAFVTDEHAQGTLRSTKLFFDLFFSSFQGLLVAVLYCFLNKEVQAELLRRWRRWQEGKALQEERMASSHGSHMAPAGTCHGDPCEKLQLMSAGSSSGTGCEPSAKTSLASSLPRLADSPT
Protocol: (§1) Experimental Animal Protocol. Lean (+/?) and fatty (fa/fa) Zucker rats were obtained from Harlan Labs at seven weeks of age and randomly assigned to two groups within each phenotype. One group was injected subcutaneously with PP (Peninsula Labs (Belmont, Calif.) (200 μg/day/kg body weight) in a vehicle of physiological saline (0.9% w/v) while the other group was injected with only vehicle. The two groups within each phenotype received their respective treatments for five days, after which the animals were weighed and sacrificed following an overnight fast. Blood samples were obtained from each animal for assays of plasma glucose and insulin according to standard methods known in the art (3) and the pancreas was removed and subjected to an acid-ethanol extraction (0.1N HCl, 70% ethanol) as described previously for assay of pancreatic insulin (3). Livers were removed into ice cold balanced salt solution. […]
Binding curves were analyzed using nonlinear least squares.

glucagon receptor [2] = target: T1, glucagon receptor; assay: Glucagon competition binding in liver plasma membranes (50 pM labeled glucagon, with and without GTP); design: species or system Zucker rat
[3] = test system: G proteins migrating at 41 kDa in liver plasma membranes; assay: Receptor dependent labeling of hepatocyte G proteins with AA-[32P]GTP; type: biochemical
Protocol: Receptor dependent labeling of hepatocyte G proteins with 4-Azidoanilido-α[^32 P]GTP. The protocol for labeling G proteins with AA-GTP was as described previously (11). The AA-[32P]-GTP used in the labeling experiments was prepared according to the protocol of Offermans et al. (6,7).
The purpose of these labeling studies was to determine whether PP stimulated the binding of AA-[^32 P]GTP to proteins migrating at the known molecular weight of G proteins in liver plasma membranes. […] Incubation of liver plasma membranes with 1 μM angiotensin II produced a two-fold increase in labeling of G protein(s) migrating at 41 kDa on SDS PAGE gels The 41 kDa band represents the pertussis-sensitive G protein family that is expressed in hepatocytes and which couples to angiotensin II receptors.

adenylyl cyclase = assay: Adenylyl cyclase assay in liver plasma membranes; type: biochemical, Zucker rat; conditions: for effect of PP treatment on efficacy of glucagon in activating adenylyl cyclase: PP 200 μg/day/kg s.c. five days
Protocol: Lean (+/?) and fatty (fa/fa) Zucker rats were obtained from Harlan Labs at seven weeks of age and randomly assigned to two groups within each phenotype. One group was injected subcutaneously with PP (Peninsula Labs (Belmont, Calif.) (200 μg/day/kg body weight) in a vehicle of physiological saline (0.9% w/v) while the other group was injected with only vehicle. The two groups within each phenotype received their respective treatments for five days, after which the animals were weighed and sacrificed following an overnight fast. Blood samples were obtained from each animal for assays of plasma glucose and insulin according to standard methods known in the art (3) and the pancreas was removed and subjected to an acid-ethanol extraction (0.1N HCl, 70% ethanol) as described previously for assay of pancreatic insulin (3). Livers were removed into ice cold balanced salt solution. After cooling, each liver was cleaned of connective tissue and minced into 2-4 mm pieces with scissors in 5 ml of ice-cold homogenizing buffer (50 mM Hepes, pH 6.5, 5 mM EDTA, 3 mM orthophenanthroline, 0.2 μM iodoacetic acid, 1 mM PMSF, 25 μm leupeptin (3). The minced liver was homogenized in a 40 ml Dounce homogenizer in 25 ml of homogenizing buffer with 25 strokes of the loose pestle and three strokes of the tight pestle. The homogenate was centrifuged for five minutes at 3000×g. The supernatant was removed and centrifuged for 20 min at 16,000×g. The resulting pellet was retained, resuspended in phosphate buffered saline (PBS) containing 5 mM MgCl2 and homogenized with five strokes of the Dounce homogenizer. After centrifuging for 20 min at 16,000×g, the membrane pellet was resuspended in homogenizing buffer containing 0.1% bovine serum albumin (BSA). Aliquots were frozen in liquid nitrogen and stored at -80° C.
Adenylyl cyclase activity leading to the production of cAMP was determined in liver plasma membranes by methods previously described (2, 4). […] Cyclic AMP formed in the reaction was measured in the supernatant by radioimmunoassay according to methods described previously (2, 4). […]

Gs α = assay: Western blot assay of Gs α in liver plasma membranes; type: in vivo, Zucker rat; conditions: PP 200 μg/day/kg s.c. five days
Protocol: as §1, with “(3).” for “(3). Livers were removed into ice cold balanced salt solution.”
Purified liver plasma membranes were solubilized on ice for one hour in 20 mM Tris, 1 mM EDTA, 1 mM DTT, 100 mM NaCl and 0.9% sodium cholate (pH 8.0). […] Following the procedure of Mumby (20), the PVDF membranes were probed with Gs α IgG and the bands were detected with ^125 I-labeled goat anti-rabbit IgG (1.0×10^6 cpm/ml). […]
In performing the Western blot assays, protein was carefully measured in the liver plasma membrane supernatant to assure that equal amounts of soluble membrane protein would be loaded from the respective treatment groups.

| Molecule | effect of PP treatment on total glucagon binding sites (glucagon receptor [1]; either phenotype (lean and fatty Zucker rats), PP 200 μg/day/kg s.c. five days) | Bmax, total glucagon binding sites (glucagon receptor [1]; liver membranes of fatty Zucker rats treated with PP 200 μg/day/kg s.c. for five days) [fmol/mg] | percentage of high affinity glucagon binding sites (glucagon receptor [2]; fatty Zucker rats treated with PP for five days) [%] | percentage of high affinity glucagon binding sites (glucagon receptor [2]; lean Zucker rats treated with PP for five days) [%] | labeling of G proteins migrating at 41 kDa, result in words [3] | maximal increase in AA-[32P]GTP labeling of G proteins migrating at 41 kDa ([3]; maximal effect) | effect of PP treatment on efficacy of glucagon in activating adenylyl cyclase (adenylyl cyclase; fatty Zucker rats) | effect of PP treatment on efficacy of glucagon in activating adenylyl cyclase (adenylyl cyclase; lean Zucker rats) | maximal adenylyl cyclase activation by glucagon (adenylyl cyclase; second replicate, PP treated fatty Zucker rats (200 μg/day/kg s.c., five days)) [pmol cAMP/min/mg] | effect of PP treatment on hepatic Gs α expression (Gs α; fatty Zucker rats) | effect of PP treatment on hepatic Gs α expression (Gs α; lean Zucker rats) | increase in AA-[32P]GTP labeling of G protein(s) migrating at 41 kDa ([3]; 1 μM) |
| --- | --- | --- | --- | --- | --- | --- | --- | --- | --- | --- | --- | --- |
| CC[C@H](C)[C@H](NC(=O)[C@H](Cc1ccc(O)cc1)NC(=O)[C@H](CCCNC(=N)N)NC(=O)[C@H](CCCNC(=N)N)NC(=O)[C@H](CC(C)C)NC(=O)[C@H](CC(=O)O)NC(=O)[C@H](C)NC(=O)[C@H](C)NC(=O)[C@H](Cc1ccc(O)cc1)NC(=O)[C@H](CCC(N)=O)NC(=O)[C@H](C)NC(=O)[C@H](CCSC)NC(=O)[C@H](CCC(N)=O)NC(=O)[C@H](CCC(=O)O)NC(=O)[C@@H]1CCCN1C(=O)[C@@H](NC(=O)[C@H](C)NC(=O)[C@H](CC(N)=O)NC(=O)[C@H](CC(=O)O)NC(=O)CNC(=O)[C@@H]1CCCN1C(=O)[C@H](Cc1ccc(O)cc1)NC(=O)[C@@H](NC(=O)[C@@H]1CCCN1C(=O)[C@H](CCC(=O)O)NC(=O)[C@H](CC(C)C)NC(=O)[C@@H]1CCCN1C(=O)[C@H](C)N)C(C)C)[C@@H](C)O)C(=O)N[C@@H](CC(N)=O)C(=O)N[C@@H](CCSC)C(=O)N[C@@H](CC(C)C)C(=O)N[C@H](C(=O)N[C@@H](CCCNC(=N)N)C(=O)N1CCC[C@H]1C(=O)N[C@@H](CCCNC(=N)N)C(=O)N[C@@H](Cc1ccc(O)cc1)C(N)=O)[C@@H](C)O [PP] | failed to alter total glucagon binding sites | 569 ± 45 | 71 | 55 | concentration-dependent increase in labeling | approximately two-fold | significant decrease in the efficacy of glucagon | did not modify the efficacy of glucagon | 60.2±1.5 | decreased hepatic expression of Gs α to levels similar to that seen in lean rats | not altered |  |
| angiotensin II (DRVYIHPF; Angiotensin-2; UniProt P01019 25-32, looked up) [positive control that couples to pertussis-sensitive G proteins, reference compound] |  |  |  |  |  |  |  |  |  |  |  | two-fold |
